Columns and labels:
Assay type in all cases: cell-based
[1] = system: Pseudomonas aeruginosa ATCC 25668; experiment: Range of antimicrobial activity (CFU protocol)
Procedure: (§1) For the further investigation of the exemplary compounds (Table 2), the following protocol was adopted: • (i) Bacteria (S. aureus BAA-44 and E. coli 25922) were grown in brain heart infusion (BHI) broth until they reached the stationary phase of growth. • (ii) The cells were harvested by centrifugation (3000 g for 15 min) with a table centrifuge, washed with 10 mM PBS at pH 7.4 containing 2.7 mM KCl and 0.14 M NaCl and suspended in PBS at an optical density of 0.7 at 650 nm corresponding to 10^8-10^9 cells/ml. • (iii) The bacteria, at the desired cell density (˜10^8 cells/ml) were incubated for 5 min in the dark with various concentrations of the exemplary compounds. • (iv) At the end of the incubation period the cells were washed three times with PBS, suspended in PBS, transferred into a 96-well microtitre plate (200 μl/well) and illuminated for 15 min with the Waldmann light source (15.2 mW/cm^2; 13.7 J/cm^2). The cells were illuminated from the bottom of the plate laying it on the glass cover of the lamp. • (v) After illumination, cell survival was determined by plating serially diluted aliquots of treated and untreated (i.e. no exemplary compound or light present) cells onto brain heart agar (BHA) and counting the number of colonies after 18-24 h incubation at 37° C.
(§2) The antibacterial activity of Compound 10 was tested against a range of bacterial strains: • S. aureus ATCC BAA-44 (a methicillin resistant S. aureus) • Ps. aeruginosa ATCC 25668 • S. epidermidis ATCC 700565 • Streptococcus pyogenes ATCC 49117 • E. coli ATCC 25922

[2] = system: Staphylococcus epidermidis ATCC 700565; experiment: Range of antimicrobial activity (CFU protocol)
Procedure: as §1, §2

[3] = system: Streptococcus pyogenes ATCC 49117; experiment: Range of antimicrobial activity (CFU protocol)
Procedure: as §1, §2

[4] = system: human dermal fibroblast (NHDF) cells; experiment: Quenching studies using sodium azide and D2O; details: after illumination
Procedure: Triangle/solid line: Compound 10+PBS buffer+light; Squares/solid line: Compound 10+D2O+light; Circles/solid line: Compound 10+sodium azide+light; Triangles/dotted line: Compound 10+PBS buffer w/o light; Squares/dotted line: Compound 10+D2O w/o light; Circles/dotted line: Compound 10+sodium azide w/o light. (n=3, mean±Std).
Quenching studies using D2O and azide were performed with Compound 10 and light against keratinocytes in vitro. In order to investigate whether phototoxicity of the test compound against NHDF, NHEK and bacteria follows the photo-oxidation type II, sodium azide, a physical quencher of singlet oxygen as well as D2O an enhancer of reactive oxygen species were (Lin et al., 1991, Cancer Res. 51:1109-1116; Moan et al., 1979, Brit. J. Cancer 39:398-407).

[5] = system: Staphylococcus aureus BAA-44; experiment: Emergence of bacterial resistance to PDT; details: S. aureus ATCC BAA-44; ten subsequent photodynamic treatments
Procedure: The potential build up of resistance of the bacterial cells to the exemplary compounds of the invention was tested in the multi-drug resistant (including methicillin) gram positive bacterium Staphylococcus aureus BAA-44, using Compound 10 as the photodynamic agent. The survival of S. aureus BAA-44 after the second treatment was again compared to the survival of S. aureus BAA-44 cells that had not been treated with PDT. […] In an additional experiment, clones which had been exposed nine times to PDT treatment by the above methodology were treated for a tenth time and the results compared to the cell kill observed in a parallel experiment where naïve cultures (i.e. which had not been exposed to PDT) were subjected to PDT treatment under exactly the same conditions.
The results obtained from comparing cell kill contained from cultures that had been exposed to 10 consecutive PDT treatments with neïve cultures (i.e. which had not been exposed to PDT) are shown in FIG. 7. The survival was expressed as log N0/N, where N0 and N represent the number of CFU/ml of the untreated and treated cell suspensions.

Compound: C[N+](C)(C)CCCOc1ccc(-c2c3nc(cc4ccc([nH]4)c(-c4ccc(OCCC[N+](C)(C)C)cc4)c4nc(cc5ccc2[nH]5)C=C4)C=C3)cc1.[Cl-].[Cl-] [Compound 10, 5,15-bis-[4-(3-Trimethylammonio-propyloxy)-phenyl]-porphyrin dichloride]
- Concentration of Compound 10 required to obtain a 3 log reduction in cells (μM) [1]: 5.0 μM
- Concentration of Compound 10 required to obtain a 3 log reduction in cells (μM) [2]: 0.0025 μM
- Concentration of Compound 10 required to obtain a 3 log reduction in cells (μM) [3]: 0.01 μM
- cell viability on addition of D2O ([4]; D2O): dramatic decrease
- Cell killing in the presence of sodium azide ([4]; sodium azide (50 mM)): reduced
- development of resistance [5]: no appreciable development of resistance
